Test results from patent US5925369A, “Bis alkanoyl esters of carnitine having bactericidal, fungicidal and antiprotozoal activity” (priority 1996, dated 1999).
Like-named read-outs stand apart in the source and are kept apart here.

How the values were obtained:
[1] = system: filamentous fungi; experiment: MIC on filamentous fungi (all strains); type: cell-based; details: for MIC: lab collection, 5 strains
Protocol: The conidia are collected from 72-hour cultures in Sabouraud agar by washing them with Sabouraud broth and 0.5% Tween 80. After a coarse filtration and washing, the resulting suspensions are adjusted to a final concentration of approx. 5.0×10^4 CFU/ml in a microtiter plate. The substances (0.3 log dilutions in Y.N.B.s.) are added to the fungal suspensions in order to generate a range of final concentrations from 0.19 to 100 mcg/ml. The microtiter plates are then incubated at 35° C. for 48-72 hours.

[2] = system: mouse scarified skin; experiment: Dermal tolerability after repeated treatments (10 days) on mouse scarified skin; type: in vivo, CD1 mice; details: 1% gel; for Cracking (C), mean score / Desquamation (D), mean score / Erythema (E), mean score: scale 0-3, 50 mg/day
Protocol: Male CD1 mice (C. RIVER), aged 6 weeks, were used (5 animals per group).
Substance formulations (1% of test article) were prepared in gel (Hydroxyethyl-cellulose, 2.5 gr.; Glycerin, 7.0 gr.; Propylene Glycol, 7.0 gr.; water up to 100 ml).
The central dorsal zone of the animals was first shaved, and then gently abraded with a scalpel blade. Treatment was performed 1 day following the dermal abrasion by administering 50 mg of each substance formulation once a day, for 10 consecutive days. The treated skin areas were examined at 5, 7, 9, and 11 days following scarification. The evaluation was based upon grading of the lesions as […] (E), DESQUAMATION (D), and CRACKING (C), according to the following scale:
The mean of the values of each parameter in the same animal group allowed us to evaluate the tissue damage provoked by the substance under examination.

[3] = system: Candida strains; experiment: MIC on Candida strains (all clinical isolates); type: cell-based, Candida albicans; details: for MIC: Candida clinical isolates, 10 strains
Protocol: (§1) Overnight yeast cultures in Sabouraud broth are appropriately washed and diluted in Yeast Nitrogen Base supplemented with asparagine and glucose (Y.N.B.s.) to yield approximately 5.0×10^4 CFU/ml in microtiter wells. Substance dilutions (0.3 log) in Y.N.B.s. are added to these suspensions to a final concentration range from 0.19 to 100 mcg/ml. Microtiter plates are then incubated at 35° C. for 24-48 hours (See PFALLER M., RINALDI M. G., […] J. M., BARTLETT M. S., BODY B. A., ESPINEL-INGROFF A., FROMTLING R. A., HALL G. S., HUGHES G. E., ODDS F. C., SUGAR A. M., Collaborative investigator of variables in susceptibility testing of yeasts, Ant. Agent and Chemoth., 34, 9:1648-1656, 1990. COOK R., McINTYRE K. A., […] J. M., Effects of incubation temperature, inoculum size, and medium on agreement of macro and microdilution broth susceptibility test, results for yeasts, Ant. Agent and Chemoth., 34, 8:1542-1545, 1990. […] E., PAETZNICK V., BODEY G. P., Fluconazole susceptibility testing of "Candida albicans" microtiter method that is indipendent of inoculum size, temperature, and time of reaching, Ant. Agent and Chemoth., 35, 8:1641-1646, 1991).

[4] = system: Staph. sp.; experiment: MIC on Gram positive bacteria; type: cell-based; details: Staph. sp. SG1 II, clinical isolate; read-out: Minimal Inhibitory Concentration
Protocol: (§2) Bacterial suspensions are prepared from an overnight culture in Mueller-Hinton broth and are adjusted, in the same medium, to a final concentration of 5.0×10^4 cells/ml in each well of a 96-well microtiter plate. Substance dilutions (0.3 log) in Mueller-Hinton broth are added to the suspensions in order to have a range of final concentrations from 0.19 to 100 mcg/ml.
(§3) Microtiters are then incubated at 37° C. for 18 hours. (See L. D. THRUPP, Susceptibility testing of antibiotics in liquid media, in: Antibiotics in laboratory medicine. V. LORIAN Ed., II edition, 4, 93-150, Williams & Wilkins, Baltimora, Md. 21202 U.S.A.).

[5] = system: B. pumilus; experiment: MIC on Gram positive bacteria; type: cell-based; details: Bacillus pumilus; B. pumilus CN 607, lab collection; read-out: Minimal Inhibitory Concentration
Protocol: as §2, §3

[6] = system: Staph. capitis; experiment: MIC on Gram positive bacteria; type: cell-based; details: Staphylococcus capitis; Staph. capitis IDI 3502, clinical isolate (pustule, scalp); read-out: Minimal Inhibitory Concentration
Protocol: as §2, §3

[7] = system: Strept. sp.; experiment: MIC on Gram positive bacteria; type: cell-based; details: Strept. sp. SG 7 II, clinical isolate; read-out: Minimal Inhibitory Concentration
Protocol: as §2, §3

[8] = system: Micrococcus sp.; experiment: MIC on Gram positive bacteria; type: cell-based; details: Micrococcus sp. IDI 3502, clinical isolate (pustule, scalp); read-out: Minimal Inhibitory Concentration
Protocol: as §2, §3

[9] = system: S. aureus (Staph. aureus); experiment: MIC on Gram positive bacteria; type: cell-based; details: Staphylococcus aureus, read-out: Minimal Inhibitory Concentration
Protocol: as §2, §3

[10] = system: S. faecalis (Strept. faecalis); experiment: MIC on Gram positive bacteria; type: cell-based; details: Enterococcus faecalis, read-out: Minimal Inhibitory Concentration
Protocol: as §2, §3

[11] = system: Staph. warneri; experiment: MIC on Gram positive bacteria; type: cell-based; details: Staphylococcus warneri; Staph. warneri IDI 3482, clinical isolate (suppurative wound); read-out: Minimal Inhibitory Concentration
Protocol: as §2, §3

[12] = system: Staph. epider.; experiment: MIC on Gram positive bacteria; type: cell-based; details: Staph. epider. IDI 3482, clinical isolate (suppurative wound); read-out: Minimal Inhibitory Concentration
Protocol: as §2, §3

[13] = system: yeast-like strains; experiment: MIC on yeast-like strains (all lab collection strains); type: cell-based; details: 5 strains
Protocol: as §1

[14] = S. aureus 306 MR, lab collection
[15] = Staph. aureus IDI 3530, clinical isolate (ulcer)
[16] = Staph. aureus IDI 3593, clinical isolate (ulcer)
[17] = Staph. aureus SG II, clinical isolate
[18] = S. faecalis 501, lab collection
[19] = S. faecalis 509, lab collection
[20] = Strept. faecalis IDI 3580, clinical isolate (ulcer)

Row | SMILES | MIC [1] | Cracking (C), mean score ([2]; day +5) | Desquamation (D), mean score ([2]; day +5) | Erythema (E), mean score ([2]; day +5) | Cracking (C), mean score ([2]; day +7) | Desquamation (D), mean score ([2]; day +7) | Erythema (E), mean score ([2]; day +7) | Cracking (C), mean score ([2]; day +9) | Desquamation (D), mean score ([2]; day +9) | Erythema (E), mean score ([2]; day +9) | Cracking (C), mean score ([2]; day +11) | Desquamation (D), mean score ([2]; day +11) | Erythema (E), mean score ([2]; day +11) | MIC [3] | MIC [4] | MIC [5] | MIC [6] | MIC [7] | MIC [8] | MIC ([9]; S. aureus 303, lab collection) | further results
1 | CCCCCCCCCCCOC(=O)C[C@H](C[N+](C)(C)C)OC(=O)CC(C)C [ST 1103, isovaleryl L-carnitine undecyl ester methanesulfonate, reference compound] | 18.8 mg/L | 0 | 0.4 | 1.2 | 0 | 0.4 | 0.4 | 0 | 0 | 0 | 0 | 0 | 0 | 4.68 mg/L | 6.25 mg/L | 3.12 mg/L | 3.12 mg/L | 3.12 mg/L | 3.12 mg/L | 6.25 mg/L | MIC [9, 14]: 6.25 mg/L; MIC [9, 15]: 3.12 mg/L; MIC [9, 16]: 3.12 mg/L; MIC [9, 17]: 3.12 mg/L; MIC [10, 18]: 3.12 mg/L; MIC [10, 19]: 1.56 mg/L; MIC [10, 20]: 6.25 mg/L; MIC [11]: 6.25 mg/L; MIC [12]: 1.56 mg/L; MIC [13]: 2.8 mg/L
2 | CCCCCCCCCCC(=O)O[C@H](CC(=O)OCc1ccc(COC(=O)C[C@H](C[N+](C)(C)C)OC(=O)CCCCCCCCCC)cc1)C[N+](C)(C)C [ST 1226, bis(undecanoyl L-carnitine chloride)p-xylilene diester] | 8.43 mg/L | 0 | 0 | 0.2 | 0 | 0 | 0 | 0 | 0 | 0 | 0 | 0 | 0 | 2.49 mg/L | 3.12 mg/L | 1.56 mg/L | 1.56 mg/L | 3.12 mg/L | 1.56 mg/L | 3.12 mg/L | activity compared with ST 1103 ([1]; single results and mean MIC): markedly higher activity than ST 1103; dermal tolerability compared with ST 1103 ([2]; 10 days): better tolerated than ST1103; activity compared with ST 1103 ([3]; yeast-like strains, mostly Candida clinical isolates): higher activity than ST 1103, mostly against Candida clinical isolates; MIC [9, 14]: 3.12 mg/L; MIC [9, 15]: 3.12 mg/L; MIC [9, 16]: 3.12 mg/L; MIC [9, 17]: 3.12 mg/L; MIC [10, 18]: 3.12 mg/L; MIC [10, 19]: 1.56 mg/L; MIC [10, 20]: 6.25 mg/L; MIC [11]: 3.12 mg/L; MIC [12]: 3.12 mg/L; MIC [13]: 2.49 mg/L
